Assay results taken from patent US5789541A, “Compounds for inhibition of proteolysis” (President and Fellows of Harvard College, priority 1995, dated 1998).
Like-named read-outs stand apart in the source and are kept apart here. Non-standard residues stand in square brackets, D forms with d. No end group written: not given here. *: point of attachment. Farnesyl = CC(C)=CCC/C(C)=C/CC/C(C)=C/C*

Tests used:
Format in all cases: biochemical
[1] = tested on: protease of bovine liver microsomal membranes; assay: Substrate kinetics/activity: formation of N-[3H]-AFC from peptide substrates by calf liver microsomal protease; set-up: key to substrate activity (Table 1, in words): Analogs referred to as inactive did not show detectable activity as substrate when used at concentration of 10mM and prolonged incubation time (16 hours); weakly active: Where marginal activity is noted, detectable activity is observed under prolonged incubation periods, but the activity is <5% that observer, with AFC-V-I-S; conditions: for substrate activity for the protease (in words): calf liver microsomal preparation; for substrate activity (Table 1, in words): 10mM, prolonged incubation time (16 hours)
Description: Briefly, N-[^3 H]-Acetyl-S-farnesyl-L-cys-L-val-L-ile-L-ser or N-[^3 H]acetyl-S-farnesyl-(SEQ ID NO: 1) at a concentration of 10 μM was incubated with bovine liver microsomal membranes (preparation described below). Periodically, 50 μL aliquots were withdrawn from the incubation mixture and the reaction was quenched with 500μL of chloroform/methanol (1:1, v/v). N-[^3 H]-AFC was extracted after thoroughly mixing the mixture for 1 minute and extracting with chloroform. Phase separation was achieved by adding 500μL of 1M citric acid. The chloroform layer was evaporated under nitrogen, resuspended in hexane/isopropanol/TFA (85:15:0.1), and authentic AFC standard was added for detection at 210 nm. The sample was injected on a silica HPLC column (Dynamax 60A, Rainin, Woburn, Mass.) and eluted with the same solvent. Radioactivity was counted with an on-line Berthold (Nashua, N.H.) LB 506-C HPLC radioactivity monitor.
(§1) Measurement of Proteolytic Activity Bovine liver microsomes were prepared according to Walter et al. (Meth. Enzym. 96:84, 1983). Kinetic measurements were performed by incubating 0.2 mg/mL protein with peptide substrates in 200 mM HEPES buffer containing 100 mM NaCl and 5 mM MgCl2 at pH 7.4, all in a final volume of 50 μL. The peptide substrates were added in DMSO to a final concentration of 4% (v/v) at 37°. The enzymatic reaction was quenched at the appropriate time by the addition of 0.5 mL of chloroform/methanol (1/1, v/v). Phase separation was achieved by adding 0.5 mL 1M citric acid. The chloroform layer was separated and evaporated under nitrogen and the residue was dissolved in n-hexane/2-propanol/TFA containing cold AFC. The formation of the product ^3 H-AFC was followed by HPLC analysis at 210 nm according to Perez-Sala et al. (Proc. Nat'l Acad. Sci. USA 88:3043, 1991). The samples were injected onto a normal phase HPLC column (Dynamax 60, Rainin, Woburn, Mass.) connected to a model LB 506-C on-line radioactivity monitor (Berthold, Nashua, N.H.). The column was eluted with n-hexane/2-propanol/TFA [85:15:0.1 (v/v/v)] at 1.5 mL/min.
For these experiments the substrates were dissolved in DMSC and incubated with calf liver microsomal membranes (0.2 mg of protein/mL) (Walter et al., supra) as described above. The amount of radioactive product was determined as described above. The reaction was quenched with 500 μL of CHCl3 /MeOH (1:1, v/v), and the radioactive N-terminal amino acid, i.e. N-[^3 H]AFC, was extracted after thoroughly agitating this mixture. Phase separation was achieved by adding 500 μL of 1M citric acid. After the chloroform layer was evaporated under nitrogen the residue was resuspended in n-hexane/isopropanol/TFA (90:10:0.01) and non-radioactive AFC was added as a standard for UV detection (210 nm). The sample was injected on a normal-phase HPLC column (Dynamax 60A, Rainin), and elution was performed with the same solvent at flow rate l.5 ml/min. Radioactivity was counted with an on-line Berthold (Nashua, NH) LB 506-C HPLC radioactivity monitor. The limit of efficiency of this assay was 3× the background counts/min (~150 cpm), which permits detection of products from substrates whose activities are 0.4% of the Vmax of AFC-Val-Ile-Ser (SEQ ID NO: 1) (1.13 pmol/min/mg). The retention times for AGC, AFC, and AGGC are 7.58, 7.26, and 7.00 min respectively, and for AGC-Val-Ile, AFC-Val-Ile, and AGGC-Val-Ile, they are 5.48, 6.54, and 5.08 min respectively.

[2] = tested on: proteolytic enzymatic activity in dog pancreatic microsomes; assay: Proteolysis of tetrapeptide by dog pancreatic microsomes, extended incubation; conditions: extended incubation conditions
Description: A similar stereospecific proteolytic enzymatic activity was also found in dog pancreatic microsomes. Under extended incubation conditions, where 54% of the tetrapeptide substrate 1 was cleaved by these microsomes, no proteolysis of D-AFC-val-ile-ser 2 could be detectec, (<1%). […] Synthesis of N-[^3 H]-acetyl-S-all-trans-farnesyl-L-Cys-L-Val-L-Ile-L-Ser or N-[^3 H]acetyl-S-farnesyl-(SEQ ID NO: 1) A solution of N-[^3 H]-acetyl-S-all-trans-farnesyl-L-Cys-L-Val-L-Ile (1.12 μmol, 250 mCi/mmol), L-serine hydrochloride methyl ester (20 mg, 0.13 mmol), and 1-hydroxybenzotriazole hydrate (17.4 mg, 0.13 mmol) in 3 mL of DMF was cooled to 0° C. 1-(3-Dimethylamino)propyl-3-ethyl carbodiimide hydrochloride (17.2 mg, 0.09 mmol) and N-methylmorpholine (14.1 μL, 13 mg, 0.13 mmol) were added at 0° C. The mixture was stirred at 0° C. under argon for 2 hours and at room temperature for 24 hours. Water (20 mL) was added and the mixture was extracted with ethyl acetate (4×20 mL). The combined organic layer was washed with 10% HCl, saturated sodium bicarbonate, and water, dried over anhydrous magnesium sulfate, filtered, and evaporated. The residue was dissolved in 3 mL of acetonitrile and 3 mL of 10% aqueous sodium carbonate was added. The mixture was stirred at room temperature for 24 h. 10% HCl was added to adjust the pH to 2. […] Recovery of radioactivity was 28.2 μCi, 1.13×10^-4 mmol. […]

[3] = tested on: protease of bovine liver microsomal membranes; assay: Inhibition of proteolysis of [3H]-AFC-val-ile-ser by calf liver microsomal protease; conditions: 4 μM [3H]-AFC-val-ile-ser substrate; 20 μM of the dipeptide or tripeptide
Description: as §1
As expected, the proteolysis of [^3 H]-AFC-val-ile-ser or N-[^3 H]-(SEQ ID NO: 1) was inhibited by the dipeptide substrate (AFC-val) and by the tripeptide substrate (AFC-val-ile). […]

[4] = Table 1, substrate of the protease, calf liver microsomal membranes, average of two determinations ±S.D., same enzyme preparation
[5] = Table 1, substrate of the protease, calf liver microsomal membranes, average of two determinations ±S.D., same enzyme preparation, read-out: KM
[6] = substrate of the protease, liver microsomal membranes, read-out: KM

Compound	substrate activity for the protease (in words) [1]	substrate activity (Table 1, in words) ([1]; Table 1)	also measured
CC(=O)N[C@@H](CSC/C=C(\C)CC/C=C(\C)CCC=C(C)C)C(N)=O [AFC amide]	not a substrate		
N-Ac-S-all-trans-farnesyl-D-Cys-L-Val-L-Ile [AFC-Val-Ile (6)]		inactive	
N-[^3 H]-Acetyl-L-Cys-L-Val-L-Ile [Cys-Val-Ile (4)]	Neither analog was measurably processed	inactive	
N-[^3 H]-Acetyl-S-all-trans-geranylgeranyl-D-cys-L-Val-L-Ile [AGGC-Val-Ile (2) D-L-L]	no measurable protease activity	inactive	
N-[^3 H]-Acetyl-S-all-trans-geranylgeranyl-L-Cys-L-Val-L-Ile [AGGC-Val-Ile (2)]	good substrates		Vmax [1, 4]: 26.20 ± 0.97 pmol/min/mg; Km [1, 5]: 4.01 ± 0.4 µM; Vmax ([1]; substrate of the protease): 19.35 pmol/min/mg; Km [1, 6]: 14.6 µM
N-[^3 H]-Acetyl-S-thio-t-butyl-L-Cys-L-Val-L-Ile [t-butylthio-Cys-Val-Ile (5)]	Neither analog was measurably processed	inactive	
N-[^3 H]-acetyl-S-all-trans-farnesyl-D-Cys-L-Val-L-Ile-L-Ser [D-AFC-val-ile-ser]	did not occur		tetrapeptide cleaved [2]: < 1%
N-[^3 H]-acetyl-S-all-trans-farnesyl-L-Cys-L-Val-D-Ile [AFC-Val-Ile (8)]	did not have substrate activity	inactive	
N-[^3 H]-acetyl-S-all-trans-farnesyl-L-Cys-L-Val-L-Ile-D-Met ({(3H)‑acetyl}-C(Farnesyl)VI[dM]) [AFC-Val-Ile-Met (10)]	processed to some extent	weakly active (Where marginal activity is noted, detectable activity is observed under prolonged incubation periods, but the activity is <5% that observer, with AFC-V-I-S)	
N-[^3 H]-acetyl-S-all-trans-farnesyl-L-Cys-L-Val-L-Ile-L-Met (C(Farnesyl)VIM; not fully specified (N-terminus); printed as N-[^3 H]-acetyl-S-all-trans-farnesyl-L-Cys-L-Val-L-Ile-L-Met; also: tritium label on the N-acetyl) [AFC-Val-Ile-Met (9)]	good substrate		Vmax [1, 4]: 126.3 pmol/min/mg; Km [1, 5]: 2.96 ± 0.35 µM
N-acetyl-S-all-trans-farnesyl-D-Cys-D-Val-L-Ile [D-D-L]	inactive		
N-acetyl-S-all-trans-farnesyl-L-Cys-D-Val-L-Ile [AFC-Val-Ile (7)]	did not have substrate activity	inactive	
N-acetyl-S-farnesyl-L-cysteine-L-val-L-ile-L-ser [AFC-val-ile-ser]			Vmax ([1]; bovine liver microsomal membranes): 0.236 ± 0.008 nmol/min/mg protein; Km [1, 6]: 4.8 µM; tetrapeptide cleaved [2]: 54%
N-acetyl-S-trans-geranyl-D-Cys-L-Val-Ile [AGC-Val-Ile (3) D-L-L]	no measurable protease activity	inactive	
N-acetyl-S-trans-geranyl-L-Cys-L-Val-L-Ile [AGC-Val-Ile (3)]	good substrates		Vmax [1, 4]: 19.35 ± 1.12 pmol/min/mg; Km [1, 5]: 14.6 ± 2.14 µM
acetyl-S-all-trans-farnesyl-L-Cys-Val-Ile [AFC-Val-Ile (1)]			Vmax [1, 4]: 57.7 ± 5 pmol/min/mg; Vmax, previously measured ([1]; former measurement on a different microsome preparation from a different animal): 65.6 pmol/min/mg; Km ([1]; former measurement on a different microsome preparation from a different animal, read-out: KM, previously measured): 12.6 µM; Vmax ([1]; substrate of the protease): 58 ± 4.9 pmol/min/mg; Km [1, 6]: 9.2 ± 0.21 µM; diminution in substrate cleavage [3]: approximately 50%
